Reference: BigSolDB 2.1

CC(=O)c1cnccn1
solubility (mole fraction)
Conditions | 268.35 K | 273.15 K | 278.15 K | 283.21 K | 288.15 K | 293.05 K | 298.15 K | 303.15 K | 308.35 K
in DMF | 0.0822 | 0.0972 | 0.116 | 0.139 | 0.165 | 0.194 | 0.23 | 0.269 | 0.314
in NMP | 0.117 | 0.129 | 0.15 | 0.174 | 0.203 | 0.234 | 0.271 | 0.31 | 0.355
in acetone | 0.0511 | 0.0601 | 0.0727 | 0.0826 | 0.0977 | 0.119 | 0.137 | 0.153 | 0.174
in ethanol | 0.0073 | 0.0111 | 0.0136 | 0.0178 | 0.0231 | 0.0347 | 0.0433 | 0.0542 | 0.0727
in ethyl acetate | 0.0636 | 0.0746 | 0.0889 | 0.101 | 0.116 | 0.144 | 0.164 | 0.186 | 0.209
in isopropanol | 0.0052 | 0.0075 | 0.0106 | 0.0128 | 0.0195 | 0.0299 | 0.0382 | 0.0509 | 0.0698
in methanol | 0.013 | 0.0156 | 0.0179 | 0.0224 | 0.0281 | 0.0405 | 0.0485 | 0.0596 | 0.077
